From ChEMBL document CHEMBL4418495, “Entpd5 inhibitors” (2012)
Active and inactive are the calls of the source.

Tests used:
[1] = target: T1, Uridylate kinase (Escherichia coli (strain K12)) (UniProt P0A7E9); test: Inhibition of recombinant Escherichia coli UMP kinase pyrH catalyzed UMP phosphorylation in presence of GTP and ATP incubated for 1 hr by luminescence based assay
T1 sequence (whole entry): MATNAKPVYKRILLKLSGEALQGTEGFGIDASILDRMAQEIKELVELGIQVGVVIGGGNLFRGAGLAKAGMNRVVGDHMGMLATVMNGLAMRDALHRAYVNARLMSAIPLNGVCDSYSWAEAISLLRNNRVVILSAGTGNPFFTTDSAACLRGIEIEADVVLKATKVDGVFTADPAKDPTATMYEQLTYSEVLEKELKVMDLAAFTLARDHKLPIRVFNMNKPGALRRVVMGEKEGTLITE

[2] = target: T2, Nucleoside diphosphate phosphatase ENTPD5 (Homo sapiens) (UniProt O75356); test: Inhibition of human recombinant ENTPD5 expressed in insect cells assessed as reduction in UDP hydrolysis up to 10 uM incubated for 1 hr in presence of UMP, GTP and ATP by Escherichia coli UMP kinase pyrH catalyzed UMP phosphorylation coupled luciferase assay
T2 sequence (whole entry): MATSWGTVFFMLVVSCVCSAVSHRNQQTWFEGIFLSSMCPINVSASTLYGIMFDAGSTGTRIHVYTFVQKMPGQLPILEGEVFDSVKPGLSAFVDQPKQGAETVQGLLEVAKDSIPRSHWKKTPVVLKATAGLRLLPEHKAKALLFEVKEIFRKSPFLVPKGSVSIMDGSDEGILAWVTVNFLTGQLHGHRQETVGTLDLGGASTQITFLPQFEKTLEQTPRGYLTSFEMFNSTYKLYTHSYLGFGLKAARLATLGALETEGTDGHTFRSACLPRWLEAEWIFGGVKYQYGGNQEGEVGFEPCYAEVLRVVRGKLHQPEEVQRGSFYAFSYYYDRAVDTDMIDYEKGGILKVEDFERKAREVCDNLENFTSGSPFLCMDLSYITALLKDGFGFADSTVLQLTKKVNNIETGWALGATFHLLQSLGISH

LNCaP [3] = test: Antitumor activity against human LNCAP cells xenografted in mouse assessed as reduction in cells left in matrigels at 1 to 100 mg/kg, ip dosed every other day and measured after 6 weeks by hematoxylin and eosin staining based microscopy; format: functional, organism-based
[4] = target: T2, Nucleoside diphosphate phosphatase ENTPD5 (Homo sapiens); test: Inhibition of human recombinant ENTPD5 expressed in insect cells assessed as reduction in reduction in UDP hydrolysis by measuring inorganic phosphate release incubated for 1 hr by malachite green based assay
[5] = target: T2, Nucleoside diphosphate phosphatase ENTPD5 (Homo sapiens); test: Inhibition of human recombinant ENTPD5 expressed in insect cells assessed as reduction in UDP hydrolysis at 1 uM incubated for 1 hr in presence of UMP, GTP and ATP by Escherichia coli UMP kinase pyrH catalyzed UMP phosphorylation coupled luciferase assay
LNCaP [6] = test: Antitumor activity against human LNCAP cells xenografted in mouse assessed as induction of tumor shrinkage at 1 to 100 mg/kg, ip dosed every other day and measured after 6 weeks by microscopy; format: functional, organism-based
[7] = target: T3, Ectonucleoside triphosphate diphosphohydrolase 5 (Mus musculus) (UniProt Q9WUZ9); test: Inhibition of ENTPD5 in PTEN knockout mouse MEF cells assessed as induction of ER stress by measuring increase in GRP78/BiP expression at 30 uM incubated for 24 hrs by Western blotting analysis; format: cell-based
T3 sequence (whole entry): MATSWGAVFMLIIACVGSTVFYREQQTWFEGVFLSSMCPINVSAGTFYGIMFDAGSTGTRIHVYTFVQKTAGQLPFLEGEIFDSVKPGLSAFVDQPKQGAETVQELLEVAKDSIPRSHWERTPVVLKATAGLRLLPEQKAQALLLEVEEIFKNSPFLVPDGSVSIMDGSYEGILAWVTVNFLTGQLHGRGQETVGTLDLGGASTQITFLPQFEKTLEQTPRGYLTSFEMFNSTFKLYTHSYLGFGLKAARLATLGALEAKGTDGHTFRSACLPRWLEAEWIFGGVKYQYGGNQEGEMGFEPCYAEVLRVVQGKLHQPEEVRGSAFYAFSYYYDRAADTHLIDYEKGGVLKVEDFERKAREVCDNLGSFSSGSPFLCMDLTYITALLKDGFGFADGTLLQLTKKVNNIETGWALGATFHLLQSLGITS

Row | Compound | inhibition [1] | inhibition [2] | Activity (LNCaP [3]) | inhibition [4] | inhibition [5] | Activity (LNCaP [6]) | inhibition [7]
1 | O=C1/C(=C/c2ccc(O)cc2O)CCC/C1=C\c1ccc(O)cc1O | inactive | Dose-dependent effect | Active | Active | Active | Active | Active
2 | COc1ccc(/C=C2\SC(=S)N(c3ccc([N+](=O)[O-])cc3)C2=O)cc1O | inactive | Dose-dependent effect | Active | Active | Active | Active | Active
3 | Cc1ccc(-c2ccc(C=C3C(=O)NC(=S)NC3=O)o2)c(Br)c1 | inactive | Dose-dependent effect | Active | Active | Active | Active | Active
4 | O=C1NC(=S)N(c2ccccc2F)C(=O)/C1=C/c1cccn1-c1ccc(Br)cc1 | inactive | Dose-dependent effect | Active | Active | Active | Active | Active
5 | O=C1NC(=S)N(c2ccccc2)C(=O)/C1=C/c1cccn1-c1ccc(Cl)cc1 | inactive | Dose-dependent effect | Active | Active | Active | Active | Active
6 | O=C1NC(=S)N(c2ccc(Cl)cc2)C(=O)/C1=C\c1ccc(-c2ccc([N+](=O)[O-])cc2)o1 | inactive | Dose-dependent effect | Active | Active | Active | Active | Active
7 | O=C1NC(=S)NC(=O)C1=Cc1ccc(-c2cc(Cl)ccc2Cl)o1 | inactive | Dose-dependent effect | Active | Active | Active | Active | Active
8 | O=C1NC(=S)N(c2ccccc2)C(=O)/C1=C/c1ccc(-c2ccc(F)cc2)o1 | inactive | Dose-dependent effect | Active | Active | Active | Active | Active
9 | S=C(Nc1ccc2nc(-c3ccco3)c(-c3ccco3)nc2c1)N1CCCCCC1 | inactive | Dose-dependent effect | Active | Active | Active | Active | Active
10 | O=C(Oc1ccc2ccccc2c1)c1ccc2c(c1)C1C=CCC1C(C(=O)O)N2 (centres undefined) | inactive | Dose-dependent effect | Active | Active | Active | Active | Active
11 | Cc1cc(/C=C2\C(=O)NC(=S)N(c3ccc(Cl)cc3)C2=O)c(C)n1-c1ccc([N+](=O)[O-])cc1 | inactive | Dose-dependent effect | Active | Active | Active | Active | Active
12 | Cc1ccc(N2C(=O)/C(=C/c3cc(Br)cc(I)c3O)C(=O)NC2=S)cc1C | inactive | Dose-dependent effect | – | Active | Active | – | –
13 | O=C(Nc1ccc(Oc2ccc(NC(=O)c3cccs3)cc2)cc1)c1cccs1 | inactive | Dose-dependent effect | – | Active | Active | – | –
14 | O=C1S/C(=C/c2ccco2)C(=O)N1c1ccc(Cl)cc1 | inactive | Dose-dependent effect | – | Active | Active | – | –
15 | Nc1nc(SCc2nnc(Nc3ccccc3)s2)nc2sc3c(c12)CCC3 | inactive | Dose-dependent effect | – | Active | Active | – | –
16 | Cc1cccc(Oc2ccc(N3C(=O)C=CC3=O)cc2)c1C | inactive | Dose-dependent effect | – | Active | Active | – | –
17 | O=C1C=CC(=O)c2c1c(-c1ccccc1)nn2-c1ccccc1 | inactive | Dose-dependent effect | – | Active | Active | – | –
18 | O=C(Nc1nonc1NC(=O)c1sc2cc(Cl)ccc2c1Cl)c1sc2cc(Cl)ccc2c1Cl | inactive | Dose-dependent effect | – | Active | Active | – | –
19 | COc1ccc(C(c2cc(C(C)(C)C)c(O)c(C(C)(C)C)c2)N2CCOCC2)cc1 (centres undefined) | inactive | Dose-dependent effect | – | Active | Active | – | –
20 | N#CC(c1ccc(Cl)cc1)c1c(Cl)cc(-n2ncc(=O)[nH]c2=O)cc1Cl (centres undefined) | inactive | Dose-dependent effect | – | Active | Active | – | –
21 | CCC(C)(C)C1CCc2c(sc(NC(=O)c3ccoc3C)c2C(N)=O)C1 (centres undefined) | inactive | Dose-dependent effect | – | Active | Active | – | –
22 | COc1ccc([C@@H]2Nc3ccc(Br)cc3[C@@H]3C=CC[C@@H]32)cc1[N+](=O)[O-] | inactive | Dose-dependent effect | – | Active | Active | – | –
23 | COc1cccc(/C=c2/sc3n(c2=O)C(c2cccs2)C2=C(N=3)c3ccccc3CC2)c1O (centres undefined) | inactive | Dose-dependent effect | – | Active | Active | – | –
24 | COc1cc(C2Nc3cccc4cccc(c34)N2)cc(I)c1O | inactive | Dose-dependent effect | – | Active | Active | – | –
25 | C=C[S+]([O-])c1sc(Cl)c(N2CCN(c3c(Cl)sc([S+]([O-])C=C)c3[N+](=O)[O-])CC2)c1[N+](=O)[O-] (centres undefined) | inactive | Dose-dependent effect | – | Active | Active | – | –
26 | O=C1NC(=S)N(c2ccc(Cl)cc2)C(=O)/C1=C\c1ccc(-c2ccccc2C(=O)O)o1 | inactive | Dose-dependent effect | – | Active | Active | – | –
27 | O=C(O)c1cccc(N2N=C(C(F)(F)F)/C(=C/c3ccc(-c4ccc(S(=O)(=O)Nc5nccs5)cc4)o3)C2=O)c1 | inactive | Dose-dependent effect | – | Active | Active | – | –
28 | O=C1C=CC(Br)=C/C1=C/NNC(=O)c1cc2ccccc2cc1O | inactive | Dose-dependent effect | – | Active | Active | – | –
29 | C=CCN(CC(=O)Nc1cc(C)on1)C(=O)CCCC | inactive | Dose-dependent effect | – | Active | Active | – | –
